# According to patent US20090270342A1, “IMMUNOREGULATORY AGENT” (priority 2006, published 2009):
# Key:
# [1] = test system: intestinal lymph node cells; test: Production of IgA, IgG and cytokines by intestinal lymph node cells of mice fed lactosucrose (Experiment 3); format: in vivo; conditions: for IFN-γ produced by intestinal lymph node cells / IL-4 produced by intestinal lymph node cells / IL-6 produced by intestinal lymph node cells / IL-10 produced by intestinal lymph node cells / IgA produced by intestinal lymph node cells / IgG produced by intestinal lymph node cells: four weeks
# Procedure: (§1) In order to investigate what type of immunopathologically-mediated tissue exerts the enhancing effect on gut immunity, the amounts of IgA, IgG, and various cytokines were measured. Similarly as in Experiment 1, female BALB/c mice (six weeks old) were preliminary reared for one week on “AIN-93G”, the same standard purified diet as used in Experiment 1. Successively, “LS-90P”, a saccharide composition comprising 91.8% (w/w), on a dry solid basis, of lactosucrose commercialized by ENSUIKO Sugar Refining Co., Ltd., Tokyo, Japan, was incorporated into the above purified diet, in which corn starch equal to the amount of the saccharide composition comprising lactosucrose had been removed, to give a lactosucrose content of 2% (w/w) or 5% (w/w), and five mice/group were allowed to ingest the resulting test diet freely. Mice, allowed to ingest “AIN-93G”, as the standard purified diet, were used as control. At four weeks after starting the administration of the test diet, Peyer's patch and intestinal lymph nodes were respectively removed from the mice and cut using a scissor. Then, the resultants were respectively treated in 0.2% (w/v) aqueous collagenase solution at 37° C. for 30 min, and filtrated using a cell strainer to obtain cell suspensions. Each cell suspension was centrifuged to collect cells and the resulting cells were suspended into a 45% (v/v) solution of “PERCOLL”, commercialized by GE Healthcare, to make into a cell suspension. Each resulting suspension was successively placed on a 75% (v/v) “PERCOLL” solution and centrifuged at 1,000×g for 10 min. Cells in a boundary phase between 45% (v/v) and 75% (v/v) “PERCOLL” solution were collected and suspended in RPMI1640 medium comprising 10% FCS and 10 mM HEPES, and the cell concentration was adjusted to 1×10^6 cells/ml. The resulting cell suspension was placed in a 24-well plate to give one ml/well each. Then, 2 μg/ml of Concanavaline A (Con A) as a stimulator to T-cell or 10 μg/ml of lipopolysaccharide (LPS) as a stimulator to B-cell and macrophage cell was admixed with the cell suspension, and then the cells were cultured at 37° C. for 48 hours using 5% (v/v) carbon dioxide gas. A culture supernatant was collected from each well, and the amounts of IgA, IgG, IFN-γ, interleukin-4 (IL-4), IL-6, interleukin-10 (IL-10), and TGF-β were measured by ELISA using an anti-mouse IgA antibody, anti-mouse IgG antibody, anti-mouse IFN-γ antibody (commercialized by Pepro Tech EC. Ltd.), anti-mouse IL-4 antibody (commercialized by R&D Systems), anti-mouse IL-6 antibody (commercialized by R&D Systems), anti-mouse IL-10 antibody (commercialized by R&D Systems), and anti-mouse TGF-β antibody (commercialized by Promega Co., Wisconsin, USA), and the average values of those from five mice were determined. The results for Peyer's patch cells and intestinal lymph node cells are respectively in Tables 3 and 4. The percentages in parentheses in the tables mean a relative value to the amount of IgA, IgG, IFN-γ, IL-4, IL-6, IL-10 or TGF-β produced by Peyer's patch cells or intestinal lymph node cells from the control mice.
# [2] = test system: Peyer's patch cells; test: Production of IgA, IgG and cytokines by Peyer's patch cells of mice fed lactosucrose (Experiment 3); format: in vivo; conditions: Lactosucrose 2% (w/w) diet, four weeks; Con A
# Procedure: as §1
# [3] = Lactosucrose 2% (w/w) diet, Con A
# [4] = Lactosucrose 2% (w/w) diet, LPS
# [5] = Lactosucrose 2% (w/w) diet, LPS, DL: Detection limit
# [6] = Lactosucrose 5% (w/w) diet, Con A
# [7] = Lactosucrose 5% (w/w) diet, LPS
# [8] = Lactosucrose 5% (w/w) diet, LPS, DL: Detection limit
structure (smiles),measurement,setting,value
"OC[C@H]1O[C@@H](O[C@H]2[C@H](O)[C@@H](O)[C@@H](O[C@]3(CO)O[C@H](CO)[C@@H](O)[C@@H]3O)O[C@@H]2CO)[C@H](O)[C@@H](O)[C@H]1O [Lactosucrose, β-D-galactosyl-(1,4)-α-D-glucosyl-(1,2)-β-D-fructoside]",IFN-γ produced by intestinal lymph node cells,[1]; [3],8.5 ± 3.4 ng/mL
same,IL-4 produced by intestinal lymph node cells,[1]; [3],22 ± 0.89 pg/mL
same,IL-6 produced by intestinal lymph node cells,[1]; [3],3.0 ± 0.81 pg/mL
same,IL-10 produced by intestinal lymph node cells,[1]; [3],14 ± 15 pg/mL
same,IgA produced by intestinal lymph node cells,[1]; [3],41 ± 15 µg/mL
same,IgG produced by intestinal lymph node cells,[1]; [3],1.9 ± 1.5 ng/mL
same,IL-6 produced by intestinal lymph node cells,[1]; [4],7.4 ± 2.6 pg/mL
same,IgA produced by intestinal lymph node cells,[1]; [4],38 ± 17 µg/mL
same,IgG produced by intestinal lymph node cells,[1]; [4],1.5 ± 1.0 ng/mL
same,IFN-γ produced by intestinal lymph node cells,[1]; [5],Below DL*
same,IL-4 produced by intestinal lymph node cells,[1]; [5],Below DL*
same,IL-10 produced by intestinal lymph node cells,[1]; [5],Below DL*
same,"IFN-γ produced by intestinal lymph node cells, relative value to control","[1]; Lactosucrose 2% (w/w), Con A",(127%)
same,"IL-4 produced by intestinal lymph node cells, relative value to control","[1]; Lactosucrose 2% (w/w), Con A",(88%)
same,"IL-6 produced by intestinal lymph node cells, relative value to control","[1]; Lactosucrose 2% (w/w), Con A",(103%)
same,"IL-10 produced by intestinal lymph node cells, relative value to control","[1]; Lactosucrose 2% (w/w), Con A",(127%)
same,"IgA produced by intestinal lymph node cells, relative value to control","[1]; Lactosucrose 2% (w/w), Con A",(85%)
same,"IgG produced by intestinal lymph node cells, relative value to control","[1]; Lactosucrose 2% (w/w), Con A",(100%)
same,"IL-6 produced by intestinal lymph node cells, relative value to control","[1]; Lactosucrose 2% (w/w), LPS",(107%)
same,"IgA produced by intestinal lymph node cells, relative value to control","[1]; Lactosucrose 2% (w/w), LPS",(93%)
same,"IgG produced by intestinal lymph node cells, relative value to control","[1]; Lactosucrose 2% (w/w), LPS",(115%)
same,IFN-γ produced by intestinal lymph node cells,[1]; [6],3.8 ± 1.2 ng/mL
same,IL-4 produced by intestinal lymph node cells,[1]; [6],21 ± 1.1 pg/mL
same,IL-6 produced by intestinal lymph node cells,[1]; [6],2.7 ± 0.44 pg/mL
same,IL-10 produced by intestinal lymph node cells,[1]; [6],14 ± 12 pg/mL
same,IgA produced by intestinal lymph node cells,[1]; [6],37 ± 31 µg/mL
same,IgG produced by intestinal lymph node cells,[1]; [6],1.00 ± 0.94 ng/mL
same,IL-6 produced by intestinal lymph node cells,[1]; [7],4.3 ± 1.1 pg/mL
same,IgA produced by intestinal lymph node cells,[1]; [7],29 ± 22 µg/mL
same,IgG produced by intestinal lymph node cells,[1]; [7],0.79 ± 0.79 ng/mL
same,IFN-γ produced by intestinal lymph node cells,[1]; [8],Below DL*
same,IL-4 produced by intestinal lymph node cells,[1]; [8],Below DL*
same,IL-10 produced by intestinal lymph node cells,[1]; [8],Below DL*
same,"IFN-γ produced by intestinal lymph node cells, relative value to control","[1]; Lactosucrose 5% (w/w), Con A",(57%)
same,"IL-4 produced by intestinal lymph node cells, relative value to control","[1]; Lactosucrose 5% (w/w), Con A",(84%)
same,"IL-6 produced by intestinal lymph node cells, relative value to control","[1]; Lactosucrose 5% (w/w), Con A",(93%)
same,"IL-10 produced by intestinal lymph node cells, relative value to control","[1]; Lactosucrose 5% (w/w), Con A",(127%)
same,"IgA produced by intestinal lymph node cells, relative value to control","[1]; Lactosucrose 5% (w/w), Con A",(77%)
same,"IgG produced by intestinal lymph node cells, relative value to control","[1]; Lactosucrose 5% (w/w), Con A",(53%)
same,"IL-6 produced by intestinal lymph node cells, relative value to control","[1]; Lactosucrose 5% (w/w), LPS",(62%)
same,"IgA produced by intestinal lymph node cells, relative value to control","[1]; Lactosucrose 5% (w/w), LPS",(71%)
same,"IgG produced by intestinal lymph node cells, relative value to control","[1]; Lactosucrose 5% (w/w), LPS",(61%)
same,IFN-γ produced by Peyer's patch cells,[2],11 ± 5.0 ng/mL
same,IL-4 produced by Peyer's patch cells,[2],22 ± 0.58 pg/mL
same,IL-6 produced by Peyer's patch cells,[2],35 ± 14 pg/mL
same,IgA produced by Peyer's patch cells,[2],1.9 ± 0.49 µg/mL
same,IgG produced by Peyer's patch cells,[2],110 ± 28 ng/mL
same,TGF-β produced by Peyer's patch cells,[2],0.40 ± 0.24 ng/mL
